Values after ≈ are worked out from the molar mass of the structure shown. Non-standard residues stand in square brackets, D forms with d. Residues, ends and D or L forms follow the SMILES beside them. *: point of attachment. Tetradecanoyl(3R-OH) = CCCCCCCCCCC[C@@H](O)CC(=O)*; Tetradecanoyl(3S-OH) = CCCCCCCCCCC[C@H](O)CC(=O)*
Legend:
[1] = critical micelle concentration, Nile Red fluorescence; type: physicochemical; conditions: overnight equilibration, intersection of linear fits of fluorescence vs log concentration
Procedure: Figure 4 CMC measurements of synthetic humimycin analogs 12R, 12S, 13R, and 13S. The CMC is the concentration at the intersection of the linear fits to the fluorescence intensity against log 10 concentration of peptide. Black circle: monomer; red circle: micelle.
The CMC of synthesized analogs 12R, 12S, 13R, and 13S was determined using the Nile Red fluorescence method, which takes advantage of the dye’s enhanced fluorescence emission in hydrophobic environments. A 500 μM stock solution of Nile Red was prepared in DMSO. Aliquots of 10 μL of this stock solution were added to each well and kept in the dark. Peptide solutions (200 μL) at various concentrations were then added to the well and allowed to equilibrate with the Nile Red overnight. Fluorescence emission spectra were recorded from 485 nm to 636 nm on a SpectraMax i3 spectrofluorometer with an excitation and emission bandwidth 9 nm and 15 nm, respectively. The ratio of the emission intensity was calculated for each peptide concentration and plotted against the logarithm of the peptide concentration. The CMC was determined from the intersection of the linear fits to the data points below and above the transition region in the plot. Tween-20 was used as positive control.

[2] = test system: Staphylococcus aureus ATCC 43300; type: cell-based; conditions: for MIC: ATCC 43300; for fold decrease in activity against the methicillin-resistant strain: MIC against MRSA ATCC 43300 compared with MSSA ATCC 29213
Excerpt: (§1) Analogs were serially diluted two-fold from stock solutions.

[3] = test system: Staphylococcus aureus ATCC 29213; type: cell-based
Excerpt: as §1

human red blood cells = type: cell-based; conditions: red cells of human, 1 h
Procedure: Figure 3 The hemolytic activity of synthetic humimycin analogs 12R, 12S, 13R, and 13S on human erythrocytes. Positive control: 0.2% Triton X-100 in PBS, negative control: PBS. The data represent the mean ± standard deviation of three independent experiments.
Hemolytic potential of the humimycin analogs 12R, 12S, 13R, and 13S, was evaluated by exposing fresh, uninfected red blood cells (RBCs) to 16 two-fold serial dilutions of each analog, ranging from 512 μg/mL to 0.015 μg/mL, in RPMI-1640 medium supplemented with HEPES and containing a maximum of 0.5% dimethyl sulfoxide (DMSO). The assay was performed in round-bottom 96-well plates at a final hematocrit of 1%. Mock control wells contained RBCs in RPMI-1640 with 1% DMSO, while 100% lysis control wells contained RBCs in RPMI-1640 with 1% DMSO and 1% Triton X-100. The plates were incubated for 1 h at 37 °C under a gassed atmosphere. Following incubation, the plates were centrifuged at 800× g for 5 min, and 100 μL of supernatant from each well was transferred to a clean flat-bottom 96-well plate. The absorbance of released hemoglobin in the supernatant was measured at 405 nm using a VICTOR plate reader (PerkinElmer). The percentage of hemolysis was calculated by comparing the absorbance of the supernatant from compound-treated RBCs to that of the mock control and 100% lysis control wells. All assays were performed in triplicates.

S. aureus strain 4-171 = type: cell-based, Staphylococcus aureus; conditions: broth microdilution, triplicate; isolate 4-171, resistance PEN-AMC-CEF-CTX-FOX
Excerpt: as §1

S. aureus ATCC 29213 = assay: growth kinetics; type: cell-based, Staphylococcus aureus; conditions: TSB, 37 °C, 6 h, OD 595 nm every 2 h, peptide at MIC, three independent experiments
Procedure: Figure 2 Growth kinetics of S. aureus ATCC 29213 in the presence of humimycin analogs 12R, 12S, 13R, and 13S. Cultures of S. aureus were treated with various concentrations (2 × MIC, MIC, ½ × MIC, and ¼ × MIC) of the peptides and their growth was monitored by measuring the optical density at 595 nm. The positive control consisted of an untreated S. aureus culture, while the negative control contained only the growth medium without bacterial inoculation. The data represents the mean ± standard deviation of three independent experiments.
The growth kinetics of S. aureus ATCC 29213 in presence of humimycin analogs 12R, 12S, 13R, and 13S was assessed on S. aureus cultures in TSB at 37 °C in the stationary phase. The overnight culture was then diluted 1:100 in fresh TSB to achieve an initial optical density at 600 nm (OD600) of approximately 0.05. Humimycin analogs were prepared at concentrations corresponding to 0.5×, 1×, and 2× the MIC. S. aureus cultures without any analog served as the positive control and culture media was the negative control. The treated and control cultures were incubated at 37 °C for a total duration of 6 h. Absorbance readings at 595 nm were recorded every 2 h using a microplate reader to monitor the bacterial growth. The OD595 values were then plotted against time to generate bacterial growth curves. To ensure reproducibility, all experiments were performed in triplicate, with results expressed in a graph as mean ± standard deviation.

[4] = test system: Pseudomonas aeruginosa ATCC 27853; assay: MIC, broth microdilution; type: cell-based; conditions: 37 °C, 18–20 h, triplicate
Excerpt: as §1

[5] = test system: Salmonella enterica ATCC 14028; assay: MIC, broth microdilution; type: cell-based; conditions: 37 °C, 18–20 h, triplicate
Excerpt: as §1

[6] = test system: Bacillus subtilis ATCC 23857; assay: MIC, broth microdilution; type: cell-based; conditions: 37 °C, 18–20 h, triplicate
Excerpt: as §1

[7] = test system: Escherichia coli ATCC 25922; assay: MIC, broth microdilution; type: cell-based; conditions: 37 °C, 18–20 h, triplicate
Excerpt: as §1

SMILES | CMC [1] | MIC [2] | MIC [3] | HC50 (human red blood cells) | MIC (S. aureus strain 4-171) | effect on bacterial growth at MIC (S. aureus ATCC 29213) | MIC [4] | MIC [5] | MIC [6] | MIC [7] | fold decrease in activity against the methicillin-resistant strain [2]
CCCCCCCCCCC[C@@H](O)CC(=O)N[C@@H](Cc1c[nH]c2ccccc12)C(=O)N[C@@H](CO)C(=O)N[C@H](Cc1c[nH]c2ccccc12)C(=O)N[C@@H](Cc1ccccc1)C(=O)N[C@@H](C(=O)N[C@H](C(=O)N[C@H](C(=O)O)C(C)C)C(C)C)[C@H](C)O [12R] ({Tetradecanoyl(3R-OH)}-WS[dW]F[dT]VV-OH) | approximately 60 μg/mL | 16 µg/mL (≈ 13.9 µM) | 16 µg/mL (≈ 13.9 µM) | 44.8 µg/mL | 2 µg/mL (≈ 1.74 µM) | effectively inhibited the growth | - (No antimicrobial activity was detected up to 256 µg/mL) | - (No antimicrobial activity was detected up to 256 µg/mL) | - (No antimicrobial activity was detected up to 256 µg/mL) | - (No antimicrobial activity was detected up to 256 µg/mL) | –
CCCCCCCCCCC[C@H](O)CC(=O)N[C@@H](Cc1c[nH]c2ccccc12)C(=O)N[C@@H](CO)C(=O)N[C@H](Cc1c[nH]c2ccccc12)C(=O)N[C@@H](Cc1ccccc1)C(=O)N[C@@H](C(=O)N[C@H](C(=O)N[C@H](C(=O)O)C(C)C)C(C)C)[C@H](C)O [12S] ({Tetradecanoyl(3S-OH)}-WS[dW]F[dT]VV-OH) | ~70 µg/mL | 16 µg/mL (≈ 13.9 µM) | 8 µg/mL (≈ 6.95 µM) | 60.8 µg/mL | 1 µg/mL (≈ 0.869 µM) | effectively inhibited the growth | - (No antimicrobial activity was detected up to 256 µg/mL) | - (No antimicrobial activity was detected up to 256 µg/mL) | - (No antimicrobial activity was detected up to 256 µg/mL) | - (No antimicrobial activity was detected up to 256 µg/mL) | –
CCCCCCCCCCC[C@@H](O)CC(=O)N[C@@H](Cc1c[nH]c2ccccc12)C(=O)N[C@@H](CO)C(=O)N[C@H](Cc1c[nH]c2ccccc12)C(=O)N[C@@H](Cc1ccccc1)C(=O)N[C@@H](C(=O)N[C@@H](C)C(=O)N[C@H](C(=O)O)C(C)C)[C@H](C)O [13R] ({Tetradecanoyl(3R-OH)}-WS[dW]F[dT]AV-OH) | ~12 µg/mL | 128 µg/mL (≈ 114 µM) | 4 µg/mL (≈ 3.56 µM) | 76.8 µg/mL | 0.5 µg/mL (≈ 0.445 µM) | effectively inhibited the growth | - (No antimicrobial activity was detected up to 256 µg/mL) | - (No antimicrobial activity was detected up to 256 µg/mL) | - (No antimicrobial activity was detected up to 256 µg/mL) | - (No antimicrobial activity was detected up to 256 µg/mL) | 32 fold
CCCCCCCCCCC[C@H](O)CC(=O)N[C@@H](Cc1c[nH]c2ccccc12)C(=O)N[C@@H](CO)C(=O)N[C@H](Cc1c[nH]c2ccccc12)C(=O)N[C@@H](Cc1ccccc1)C(=O)N[C@@H](C(=O)N[C@@H](C)C(=O)N[C@H](C(=O)O)C(C)C)[C@H](C)O [13S] ({Tetradecanoyl(3S-OH)}-WS[dW]F[dT]AV-OH) | ~40 µg/mL | 64 µg/mL (≈ 57 µM) | 2 µg/mL (≈ 1.78 µM) | 48 µg/mL | 8 µg/mL (≈ 7.13 µM) | effectively inhibited the growth | - (No antimicrobial activity was detected up to 256 µg/mL) | - (No antimicrobial activity was detected up to 256 µg/mL) | - (No antimicrobial activity was detected up to 256 µg/mL) | - (No antimicrobial activity was detected up to 256 µg/mL) | 32 fold

— PMC12024397, “Structure–Activity Study of the Antimicrobial Lipopeptide Humimycin A and Screening Against Multidrug-Resistant Staphylococcus aureus” (Antibiotics, 2025)
